Measurements published in patent US10239887B2, “Positive allosteric modulators of the muscarinic acetylcholine receptor M4” (Vanderbilt University, priority 2016, dated 2019).

Test system: amphetamine-induced hyperlocomotion
Experiment: amphetamine-induced hyperlocomotion in rats
Assay type: in vivo, male Sprague-Dawley rats
Conditions: 10 mg/kg p.o.; rat; 1 mg/kg amphetamine s.c.
Protocol: d-Amphetamine hemisulfate was obtained from Sigma (St. Louis, Mo.). Salt-correction was used to determine the correct amount of the d-amphetamine hemisulfate form in milligrams to add to sterile water in order to yield a […] solution, which would be dosed at 1 mL/kg body weight of each animal. […] The solutions were formulated so that animals were injected with a volume equal to 10 mL/kg body weight for all compounds. The appropriate amount according to the dosage was mixed in 10% Tween 80 (Sigma) in sterile water. The mixtures were then vortexed and stored in a 39° C. sonication bath for 1 hour, until in a microsuspension (except for the highest dose, which was a suspension).
Male Sprague-Dawley rats weighing 239-300 grams and averaging 265 g (Harlan, Inc., Indianapolis, Ind.) were used. They were housed in the animal care facility certified by the American Association for the Accreditation of Laboratory Animal Care (AALAC) under a 12-hour light/dark cycle (lights on: 6 a.m.; lights off: 6 p.m.) and had free access to food and water. The animals used in this experiment were food-deprived the evening before experimentation for oral dosing of compound/vehicle. The experimental protocols performed during the light cycle were approved by the Institutional Animals Care and Use Committee of Vanderbilt University and conformed to the guidelines established by the National Research Council Guide for the Care and Use of Laboratory Animals.
Male Harlan Sprague Dawley rats were habituated in Smart Open Field locomotor activity test chambers (Hamilton-Kinder, San Diego, Calif.) with 16×16 photo beams to automatically record locomotor activity. […] They were monitored for an additional 30 minutes and then injected subcutaneously with vehicle or 1 mg/kg amphetamine. Animals were then monitored for an additional 60 minutes, for a total of 120 minutes. Data were expressed as changes in ambulation defined as total number of beam breaks per 5 minute interval. Terminal brain and plasma samples were collected at the end of the study for pharmacokinetic analysis.
Behavioral data were analyzed using a two-way ANOVA with main effects of treatment and time. Post hoc analysis was performed using a Dunnett's t-test with all treatment groups compared to the VAMP group using GraphPad Prism V.5.04 (GraphPad Software, San Diego, Calif.). Data were graphed using GraphPad Prism V.5.04 (GraphPad Software, San Diego, Calif.). A probability of p<0.05 was taken as the level of statistical significance. In addition, the total number of beam breaks from the amphetamine administration (65 min) to the end of the study (120 min) was calculated and graphed. Percent Reversal was calculated as follows using Microsoft Excel: In each animal, total ambulation from t=65 to t=120 was summed. The mean of each sum was calculated in the VAMP group. Then, for each animal, Percent Reversal was calculated with the following formula: Percent Reversal=100−{[(total ambulation in each animal from t=65 to t=120)/(mean of each sum from t=65 to t=120 in VAMP group)]*100}. The mean Percent Reversal, as well as the standard error, was calculated for each dose group using GraphPad Prism V5.04.

Cc1nnc2sc(C(=O)NCc3ccc(S(=O)(=O)C(F)(F)F)cc3)c(N)c2c1C [VU0467154, reference compound]
percent reversal of amphetamine-induced hyperlocomotion: 58.9%
